According to PMC6005845 (Frontiers in Cardiovascular Medicine, 2018):
Where two headings read alike, the source gives them in different places. Blank lines part the entries; values can stand above or below the molecule they belong to.

Columns and labels:
APOE*3Leiden.CETP mice [1] = experiment: Hepatic lipid content by HPTLC; type: in vivo; conditions: 16 weeks
Experimental: (§1) Pouwer et al Supplementary material
(§2) HDL-C was measured after precipitation as described previously20. The distribution of […]
(§3) protein liquid chromatography (FPLC)9. The inflammatory markers SAA, E-selectin and MCP- […]
(§4) according to the manufacturer’s instruction. Plasma ALT and AST were determined using a […]
(§5) group at 2 and 15 weeks18.
(§6) Straubenhardt, Germany).21
(§7) BAL and urinary albumin:creatinin […]
(§8) catheter to collect broncho-alveolar lavage (BAL) fluid. Protein and albumin content in BAL […]
(§9) the mouse albumin ELISA kit (ALPCO, Salem, USA). Urinary albumin and creatinin levels […]
(§10) kit (Exocell, Philadelphia, USA) according to manufacturer’s instruction.

ALT = experiment: Plasma ALT (pooled samples); conditions: after 16 weeks
liver = experiment: Liver gene expression analysis (RNA sequencing) and pathway analysis; type: in vivo, APOE*3Leiden.CETP mice; conditions: vs control, Figure 7: imatinib 150, nilotinib 30, ponatinib 10 mg/kg
Experimental: To find early molecular signatures of other clinically relevant processes induced by the anti-CML drugs, gene expression and pathway analysis was performed in the liver as the central organ in lipid metabolism and synthesis of coagulation factors. To identify drug-specific molecular responses and overlap between the various treatments, the total number of differentially expressed genes (DEG) was assessed and a Venn-diagram was constructed comprising all DEG compared to control group. […]
Messenger RNA was isolated from liver of 8 mice per group, using the NEBNext Ultra RNA
sample Prep Kit. After fragmentation of the mRNA, cDNA synthesis was performed. The

MCP-1 = experiment: Plasma MCP-1 ELISA; type: in vivo, APOE*3Leiden.CETP mice; conditions: for MCP-1: after 16 weeks of treatment; for change of MCP-1 relative to baseline (T = 0 weeks): p < 0.001
Description: (§11) Pouwer et al Supplementary material […]
(§12) The inflammatory markers SAA, E-selectin and MCP-
(§13) according to the manufacturer’s instruction. […]

AST = experiment: Plasma AST (pooled samples); conditions: after 16 weeks
APOE*3Leiden.CETP mice [2] = experiment: Histological assessment of atherosclerosis (lesion area, number, severity) in the aortic root; type: in vivo; conditions: 16 weeks
Experimental: Significance of differences between the groups was calculated in SPSS 22.0 for Windows. Normally distributed data was tested parametrically using a one-way ANOVA for multiple comparisons with a Dunnett’s post-hoc test. Non-parametric data were compared separately with a Mann-Whitney U test with adjusted rejection criteria using a Bonferroni-Holm correction. Correlations between lesion size (after square root transformation) and cholesterol exposure were calculated with a Pearson’s correlation test. All groups were compared with the control group. Values are presented as means ± SD and p-values < 0.05 were considered statistically significant.
as §1
Dickinson, Franklin Lakes, New Jersey, USA). […]
(§14) Histological assessment of lung morphology and atherosclerosis […]
(§15) The caudal lung was cross […]
direction of the aortic arch. […]
valve leaflets and smooth muscle cells instead of collagen-rich tissue, serial cross sections (5 µm thick with intervals of 50 µm) were taken and mounted on AAS-coated slides. These sections were stained with hematoxylin-phloxine-saffron (HPS) for histological analysis. For each mouse, atherosclerosis was measured in 4 subsequent cross sections. Each section consisted of 3 segments. The average total lesion area per cross section was then calculated20
22. For determination of lesion severity the lesions were classified into five categories according to the American Heart Association classification 23: 0) no lesion I) early fatty streak, II) regular fatty streak, III) mild plaque, IV) moderate plaque, and V) severe plaque. The percentage of each lesion type was calculated, where type I-III lesions were classified as mild lesions and type IV-V lesions were classified as severe lesions 20 22. In the aortic root, lesion composition was determined for the severe lesions (type IV -V) as a percentage of lesion area after immunostaining with anti-human alpha-actin (1:400; PROGEN Biotechnik GmbH, Germany) for smooth muscle cells (SMC), and anti -mouse Mac-3 (1:50; BD Pharmingen, the Netherlands) for macrophages followed by Sirius Red staining. After Sirius Red staining for collagen, color intensity was determined in ImageJ and the used threshold was confirmed by evaluation of the sections under polarized light 24. Necrotic area and cholesterol clefts were measured after HPS staining13 20 22. Lesion stability index was calculated as described pre viously13 20. In each segment used for lesion quantification, the number of monocytes adhering to the endothelium were counted after immunostaining with AIA 31240 antibody (1:1000; Accurate Chemical and Scientific, New York, New York, USA) 14 20. […]

CML = conditions: cited from earlier work
factor VIIa = experiment: Factor VIIa activity in plasma; type: in vivo, APOE*3Leiden.CETP mice; conditions: 30 mg/kg QD, at 4 weeks, p < 0.001
Description: as §1
(§16) Dickinson, Franklin Lakes, New Jersey, USA). After 12 weeks of treatment, peripheral blood
(§17) CD11b+/Ly6Chigh monocytes. The following conjugated monoclonal antibodies, all from
(§18) Coagulation factor VII and VIIa
(§19) (Diagnostica Stago Inc. Parsippany, N J). For the determination of total clotting FVII an one
(§20) Histological assessment of lung morphology and atherosclerosis
(§21) The caudal lung was cross
(§22) direction of the aortic arch.

E-selectin = experiment: Plasma E-selectin ELISA; type: in vivo, APOE*3Leiden.CETP mice; conditions: after 16 weeks of treatment
Description: as §11, §12, §13

[3] = QD, cited from earlier work
APOE*3Leiden.CETP mice [4] = experiment: Lung vascular integrity: histology, wet/dry weight ratio, protein in BAL fluid; type: in vivo
Experimental: as §1, §2, §3, §4, §5, §6, §7, §8, §9, §10
Dickinson, Franklin Lakes, New Jersey, USA). After 12 weeks of treatment, peripheral blood […]
CD11b+/Ly6Chigh monocytes. The following conjugated monoclonal antibodies, all from […]
as §18
(Diagnostica Stago Inc. Parsippany, N J). For the determination of total clotting FVII an one […]
as §14, §15, §22

factor VII = experiment: Total factor VII coagulant activity in plasma; type: in vivo, APOE*3Leiden.CETP mice
Description: as §1, §16, §17, §18, §19, §20, §21, §22

gene expression of Protein C (liver): up-regulated
gene expression of Protein S (liver): down-regulated
gene expression of Serpina1 (PAI-1) (liver): up-regulated
gene expression of Tpa (liver): down-regulated
gene expression of Upa (liver): down-regulated
MCP-1 (MCP-1; 150 mg/kg BID): 54 ± 44 pg/mL
Compound: Cc1ccc(NC(=O)c2ccc(CN3CCN(C)CC3)cc2)cc1Nc1nccc(-c2cccnc2)n1 [Imatinib, imatinib]
change of hepatic cholesterol ester content vs control (APOE*3Leiden.CETP mice [1]; 150 mg/kg BID, p = 0.001): −30%
ALT (ALT; 150 mg/kg BID): 31 U/L
effect on plasma MCP-1 (MCP-1; 150 mg/kg BID, 16 weeks): None of the inflammatory markers were significantly altered
AST (AST; 150 mg/kg BID): 147 U/L
change of total lesion area that consisted of severe (type IV–V) lesions vs control (APOE*3Leiden.CETP mice [2]; 150 mg/kg BID, p < 0.001): −56%
reduction of atherosclerotic lesion area per cross-section vs control (APOE*3Leiden.CETP mice [2]; 150 mg/kg BID, p < 0.001): 78%
relapses in treated patients (CML): up to 17%

increase of the activity of FVIIa in plasma vs control (factor VIIa): 82%
E-selectin (E-selectin; 10 mg/kg QD): 79 ± 23 ng/mL
E-selectin (E-selectin; 30 mg/kg QD): 99 ± 17 ng/mL
gene expression of F5 (liver): down-regulation
gene expression of F9 (liver): down-regulation
gene expression of Protein S (liver): down-regulation
gene expression of Serpina1 (PAI-1) (liver): up-regulated
change of MCP-1 relative to baseline (T = 0 weeks) (MCP-1; 10 mg/kg QD, 16 weeks): +220%
MCP-1 (MCP-1; 10 mg/kg QD): 144 ± 82 pg/mL
change of MCP-1 relative to baseline (T = 0 weeks) (MCP-1; 30 mg/kg QD, 16 weeks): +160%
MCP-1 (MCP-1; 30 mg/kg QD): 117 ± 60 pg/mL
Compound: Cc1cn(-c2cc(NC(=O)c3ccc(C)c(Nc4nccc(-c5cccnc5)n4)c3)cc(C(F)(F)F)c2)cn1 [Nilotinib, nilotinib]
ALT (ALT; 10 mg/kg): 64 U/L
ALT (ALT; 30 mg/kg): 81 U/L
AUC0–24 ([3]; CML-patients, repeated dose, dose 400–1,200 (mg)): 36.0 ± 11.8 µg·h/mL
AUC0–24 ([3]; healthy subjects, single, dose 400 (mg)): 14.7 ± 5.0 µg·h/mL
AST (AST; 10 mg/kg): 210 U/L
AST (AST; 30 mg/kg): 221 U/L
effect on atherosclerotic lesion area (APOE*3Leiden.CETP mice [2]; 10 and 30 mg/kg QD): not affected

Compound: Cc1ccc(C(=O)Nc2ccc(CN3CCN(C)CC3)c(C(F)(F)F)c2)cc1C#Cc1cnc2cccnn12 [Ponatinib, ponatinib]
change of hepatic cholesterol ester content vs control (APOE*3Leiden.CETP mice [1]; 3 mg/kg QD (low dose), p < 0.001): −49%
change of hepatic triglyceride content vs control (APOE*3Leiden.CETP mice [1]; 3 mg/kg QD (low dose), p = 0.048): −32%
change of hepatic cholesterol ester content vs control (APOE*3Leiden.CETP mice [1]; 10 mg/kg QD (high dose), p < 0.001): −61%
change of hepatic triglyceride content vs control (APOE*3Leiden.CETP mice [1]; 10 mg/kg QD (high dose), p = 0.005): −43%
change of hepatic free cholesterol content vs control (APOE*3Leiden.CETP mice [1]; 10 mg/kg QD, p = 0.007): −21%
decrease of the amount of protein in BAL fluid (APOE*3Leiden.CETP mice [4]; 3 mg/kg QD, week 16, p = 0.029): 51%
decrease of the amount of protein in BAL fluid (APOE*3Leiden.CETP mice [4]; 10 mg/kg QD, week 16, p = 0.041): 47%
ALT (ALT; 3 mg/kg): 44 U/L
ALT (ALT; 10 mg/kg): 31 U/L
AUC0–24 ([3]; CML-patients, repeated dose, dose 15–60 (mg)): 1.3 µg·h/mL
AUC0–24 ([3]; CML-patients, single, dose 60 (mg)): 0.7 ± 0.4 µg·h/mL
gene expression of F7 (liver): increased
gene expression of Klkb1 (liver): increased
gene expression of Kng1a (liver): increased
gene expression of Tpa (liver): decreased
gene expression of Upa (liver): decreased
MCP-1 (MCP-1; 3 mg/kg QD): 78 ± 29 pg/mL
MCP-1 (MCP-1; 10 mg/kg QD): 92 ± 68 pg/mL
AST (AST; 3 mg/kg): 196 U/L
AST (AST; 10 mg/kg): 207 U/L
reduction of atherosclerotic lesion area per cross-section vs control (APOE*3Leiden.CETP mice [2]; 3 mg/kg QD, p = 0.002): 52%
change of lesion severity, mild lesions (type I-III) (APOE*3Leiden.CETP mice [2]; 10 mg/kg QD, p < 0.01 (Figure 4B)): +64%
reduction of atherosclerotic lesion area per cross-section vs control (APOE*3Leiden.CETP mice [2]; 10 mg/kg QD, p = 0.006): 48%
change of total factor VII coagulant activity (FVII) in plasma vs control (factor VII; 3 mg/kg QD, after 12 weeks, p = 0.07): +28%
change of total factor VII coagulant activity (FVII) in plasma vs control (factor VII; 10 mg/kg QD, after 4 weeks, p < 0.001): +265%
